Assay results from patent US20030130180A1, “Utilization of an aminopeptidase inhibitor” (priority 2000, published 2003).

Legend:
[1] = test system: tumor cells; details: cited from earlier work; for tumor cell invasion: in vitro, matrigel analytic system
[2] = test system: tumor cells; details: cited from earlier work
[3] = test system: tumor cells and immune cells; assay: Cell-biological experiments on blocking of polarization of tumor cells and immune cells; assay type: cell-based; details: general statement
Source text: By means of a method of simultaneously detecting a number of cell surface proteins, it has been established that aminopeptidases will control cell surface proteins which are not part of the class of proteolytic enzymes, but belong to the class of the adhesion molecules, which adhesion molecules—in a certain combination and geometric array—will be decisive for the polarization of the cells. Consequently, aminopeptidases appear to be superordinate control proteins in a protein network consisting of up to 30 different cell surface protein species which—through specific interaction with one another—will control polarization of tumor cells and other invasive cells such as immune cells and which are listed above. The inhibition of at least one aminopeptidase will lead to a reproducible modification of surface protein combinations on the cell surface which will always also involve a modification of CD13. […] The term polarization as used here shall denote a process in which a primarily spherical cell will transition into an oblong, elongated cell shape, via various intermediate states. This process which constitutes a change of shape controlled by the complex protein network is the prerequisite for cell migration, since only cells of oblong shape are capable of migrating. The polarization process therefore needs to precede all cell migration processes, including invasion. […]

In the case of `CCc1cccc(CC)c1N1C(=O)Cc2ccccc2C1=O` [PIQ-22], the “formation of cell extensions” value [1] is listed as “suppression of the formation of cell extensions” and the tumor cell invasion [1] is listed as “inhibition of the invasion”.

In the case of `CC(C)C[C@H](NC(=O)[C@@H](O)[C@H](N)Cc1ccccc1)C(=O)O` [bestatin], the “degradation of type IV collagen” value [2] is given as “capable of preventing degradation of the type IV collagen”, the “invasion of tumor cells” value [2] is given as “preventing the invasion of tumor cells” and the “tumor cell adhesion and migration to the extracellular matrix” value [2] is given as “does not have any influence”. For the same molecule, the “formation of cell extensions” value [1] was “no effect”, the tumor cell invasion [1] was “do not have an effect” and the “modification of the surface proteins of the protein network” value [3] was “leading to a modification of the surface proteins of the protein network”.
